Laboratory results as given in US20220340566A1, “BENZYL AMINE-CONTAINING 5,6-HETEROAROMATIC COMPOUNDS USEFUL AGAINST MYCOBACTERIAL INFECTION” (priority 2019, published 2022).

Key:
[1] = test system: Mycobacterium avium ATCC700898; experiment: Determination of IC85 against M. avium (resazurin fluorescence); assay type: cell-based; conditions: Mycobacterium avium, ATCC700898, M. avium ATCC700898, CAMHB medium, 37° C., 3 days incubation then resazurin, fluorescence one day later; read-out: IC85
[2] = Metabolic stability test in pooled human liver microsomes; assay type: in vitro ADME; conditions: human liver microsomes 0.5 mg protein/mL, 1 mmol/L NADPH, 37° C., 30 minutes
Description: Using a commercially available pooled human liver microsomes, a compound of the present invention was reacted for a constant time, a remaining rate was calculated by comparing a reacted sample and an unreacted sample, thereby, a degree of metabolism in liver was assessed.
A reaction was performed (oxidative reaction) at 37° C. for 0 minute or 30 minutes in the presence of 1 mmol/L NADPH in 0.2 mL of a buffer (50 mmol/L Tris-HCl pH 7.4, 150 mmol/L potassium chloride, 10 mmol/L magnesium chloride) containing 0.5 mg protein/mL of human liver microsomes. After the reaction, 50 μL of the reaction solution was added to 100 μL of a methanol/acetonitrile=1/1 (v/v), mixed and centrifuged at 3000 rpm for 15 minutes. The compound of the present invention in the supernatant was quantified by LC/MS/MS or solid phase extraction (SPE)/MS, and a remaining amount of the compound of the present invention after the reaction was calculated, letting a compound amount at 0 minute reaction time to be 100%.

| Compound | IC85 [1] | MS_h_% (remaining amount of compound after reaction, 0 minute = 100%) [2] |
| --- | --- | --- |
| CCc1nc2ccc(Cl)cn2c1C(=O)NCc1ccc(N2CCC(c3ccc(OC(F)(F)F)cc3)CC2)c(Cl)c1.Cl [Compound I-1-80] | 60 nM | 74% |
| Cc1ccn2c(C(=O)NCc3ccc(N4CCC(c5ccc(OC(F)(F)F)cc5)CC4)cc3F)c(C)nc2c1.Cl [Compound I-1-81] | 330 nM | 94% |
| Cc1ccn2c(C(=O)NCc3ccc(N4CCC(c5ccc(OC(F)(F)F)cc5)CC4)c(Cl)c3)c(C)nc2c1.Cl [Compound I-1-82] | 500 nM | 98% |
| CCc1nc2cc(Cl)ccn2c1C(=O)NCc1ccc(N2CCN(c3ccc(OC(F)(F)F)cc3)[C@H](C)C2)c(F)c1.Cl [Compound I-1-83] | 620 nM | 85% |
| Cc1nc2ccc(F)cn2c1C(=O)NCc1ccc(N2CCN(c3ccc(OC(F)(F)F)cc3)[C@H](C)C2)c(F)c1.Cl [Compound I-1-84] | 38 nM | 86% |
| Cc1nc2ccc(Cl)cn2c1C(=O)NCc1ccc(N2CCN(c3ccc(OC(F)(F)F)cc3)[C@H](C)C2)c(F)c1.Cl [Compound I-1-85] | 6.9 nM | 91% |
| CCc1nc2ccc(Cl)cn2c1C(=O)NCc1ccc([C@@H]2CO[C@@H](c3ccc(OC(F)(F)F)cc3)CO2)c(F)c1 [Compound I-1-86] | 28 nM | 77% |
| CCc1nc2cc(F)ccn2c1C(=O)NCc1ccc(N2CC=C(c3ccc(OC(F)(F)F)cc3)CC2)c(F)c1.Cl [Compound I-1-87] | 7.9 nM | 86% |
| CCc1nc2cc(F)ccn2c1C(=O)NCc1cc(F)c(N2CCC(c3ccc(OC(F)(F)F)cc3)CC2)c(F)c1.Cl [Compound I-1-88] | 6.1 nM | 89% |
| COc1ccn2nc(C)c(C(=O)NCc3ccc(C4CCN(c5ccc(OC(F)(F)F)cc5)CC4)c(F)c3)c2c1.Cl [Compound I-1-89] | 7.2 nM | 65% |
| COc1ccn2nc(C)c(C(=O)NCc3ccc(N4CCN(c5ccc(OC(F)(F)F)cc5)[C@@H](C)C4)c(F)c3)c2c1.Cl [Compound I-1-90] | 5.2 nM | 91% |
| COc1ccn2nc(C)c(C(=O)NCc3ccc(N4CCN(c5ccc(OC(F)(F)F)cc5)[C@H](C)C4)c(F)c3)c2c1.Cl [Compound I-1-91] | 5.3 nM | 89% |
| CCc1nc2ccc(Cl)cn2c1C(=O)NCc1cc(F)c(N2CCN(c3ccc(OC(F)(F)F)cc3)[C@@H](C)C2)c(F)c1.Cl [Compound I-1-92] | 5.5 nM | 66% |
| CCc1nc2ccc(Cl)cn2c1C(=O)NCc1ccc(N2CCN(c3ccc(OC(F)(F)F)cc3)[C@@H](C)C2)c(F)c1F.Cl [Compound I-1-93] | 11 nM | 67% |
| CCc1nc2ccc(Cl)cn2c1C(=O)NCc1cc(F)c(N2CCN(c3ccc(OC(F)(F)F)cc3)[C@@H](C)C2)cc1F.Cl [Compound I-1-94] | 14 nM | 67% |
| CCc1nc2cc(F)ccn2c1C(=O)NCc1cc(F)c(N2CCN(c3ccc(OC(F)(F)F)cc3)[C@@H](C)C2)c(F)c1.Cl [Compound I-1-95] | 2.2 nM | 91% |
| CCc1nc2cc(F)ccn2c1C(=O)NCc1ccc(N2CCN(c3ccc(OC(F)(F)F)cc3)[C@@H](C)C2)c(F)c1F.Cl [Compound I-1-96] | 11 nM | 90% |

| Compound | IC85 [1] | MS_h_% (remaining amount of compound after reaction, 0 minute = 100%) [2] |
| --- | --- | --- |
| CCc1nc2cc(F)ccn2c1C(=O)NCc1cc(F)c(N2CCN(c3ccc(OC(F)(F)F)cc3)[C@@H](C)C2)cc1F.Cl [Compound I-1-97] | 7.2 nM | 86% |
| CCc1nc2ccc(Cl)cn2c1C(=O)NCc1ccc(N2CCN(c3ccc(OC(F)(F)F)cc3F)[C@@H](C)C2)c(F)c1.Cl [Compound I-1-98] | 8.8 nM | 76% |
| CCc1nc2ccc(Cl)cn2c1C(=O)NCc1ccc(N2CCN(c3ncc(C(F)(F)F)cc3F)[C@@H](C)C2)c(F)c1.Cl [Compound I-1-99] | 35 nM | 77% |
| CCOc1ccc(N2CCN(c3ccc(CNC(=O)c4c(CC)nc5ccc(Cl)cn45)c(F)c3)C[C@@H]2C)cc1.Cl [Compound I-1-100] | 46 nM | 65% |
| CCOc1ccc(N2CCN(c3ccc(CNC(=O)c4c(CC)nc5ccc(Cl)cn45)c(F)c3)C[C@@H]2C)c(F)c1.Cl [Compound I-1-101] | 470 nM | 90% |
| CCc1nc2ccc(Cl)cn2c1C(=O)NCc1ccc(N2CCN(c3ccc(OCC4CC4)cc3)[C@@H](C)C2)cc1F.Cl [Compound I-1-102] | 24 nM | 75% |
| CCCCOc1ccc(N2CCN(c3ccc(CNC(=O)c4c(CC)nc5ccc(Cl)cn45)c(F)c3)C[C@@H]2C)cc1.Cl [Compound I-1-103] | 19 nM | 64% |
| Cc1nn2ccccc2c1C(=O)NCc1ccc(N2CCN(c3ccc(OC(F)(F)F)cc3)[C@@H](C)C2)c(F)c1.Cl [Compound I-1-104] | 92 nM | 72% |
| Cc1nn2cc(F)ccc2c1C(=O)NCc1ccc(N2CCN(c3ccc(OC(F)(F)F)cc3)[C@@H](C)C2)c(F)c1.Cl [Compound I-1-105] | 59 nM | 77% |
| CCc1nc2ccc(Cl)cn2c1C(=O)NCc1ccc(C2CCN(c3ccc(OC(F)(F)F)cc3)[C@@H](C)C2)c(F)c1.Cl (stereo partly drawn) [Compound I-1-106] | 6.2 nM | 59% |
| CCc1nc2ccc(Cl)cn2c1C(=O)NCc1ccc(C2=C[C@H](C)N(c3ccc(OC(F)(F)F)cc3)CC2)c(F)c1.Cl [Compound I-1-107] | 7 nM | 71% |
| CCc1nc2cc(F)ccn2c1C(=O)NCc1ccc(N2CCN(c3ccc(OC(F)(F)F)cn3)[C@@H](C)C2)c(F)c1.Cl [Compound I-1-108] | 4.2 nM | 71% |
| CCOc1ccc(N2CCN(c3ccc(CNC(=O)c4c(CC)nc5cc(F)ccn45)cc3F)C[C@@H]2C)cc1.Cl [Compound I-1-109] | 7.1 nM | 80% |
| CCc1nc2cc(F)ccn2c1C(=O)NCc1ccc(N2CCN(c3ccc(OC4CC4)cc3)[C@@H](C)C2)c(F)c1.Cl [Compound I-1-110] | 9.3 nM | 80% |
| CCc1nc2cc(F)ccn2c1C(=O)NCc1ccc(N2CCN(c3ccc(OC(C)C)cc3)[C@@H](C)C2)c(F)c1.Cl [Compound I-1-111] | 7.1 nM | 88% |
| CCc1nc2cc(F)ccn2c1C(=O)NCc1ccc(N2CCN(c3ccc(C(F)(F)F)cc3)[C@@H](C)C2)c(F)c1.Cl [Compound I-1-112] | 1.4 nM | 69% |
